Source: PubChem BioAssay (NCI)
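In this assay, cells in 96-well plates receive the compound at five concentrations for 48 hours. Endpoints are linearly interpolated between the surrounding concentrations. GI50 is the concentration that inhibits growth by half. TGI is the concentration that stops growth completely.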

Tests used:
Experiment in all cases: inhibition of tumour cell growth, NCI panel, 48 h
[1] = tested on: MCF7 breast
[2] = tested on: A549 NSCLC
[3] = tested on: CCRF-CEM leukemia
[4] = tested on: HOP-62 NSCLC
[5] = tested on: MDA-MB-435
[6] = tested on: MALME-3M melanoma
[7] = tested on: HOP-92 NSCLC
[8] = tested on: IGROV1 ovarian
[9] = tested on: MDA-MB-231 breast
[10] = tested on: HS 578T breast
[11] = tested on: UO-31 renal
[12] = tested on: RXF 393 renal
[13] = tested on: NCI-H460 lung
[14] = tested on: CAKI-1 renal
[15] = tested on: K-562 leukemia
[16] = tested on: SR leukemia
[17] = tested on: SN12C renal
[18] = tested on: EKVX NSCLC
[19] = tested on: SNB-75 CNS
[20] = tested on: HL-60(TB) leukemia
[21] = tested on: OVCAR-5 ovarian
[22] = tested on: TK-10 renal
[23] = tested on: COLO 205 colon
[24] = tested on: OVCAR-3 ovarian
[25] = tested on: NCI/ADR-RES ovarian
[26] = tested on: SF-539 CNS
[27] = tested on: HCT-15 colon
[28] = tested on: NCI-H226 lung
[29] = tested on: U251 CNS
[30] = tested on: PC-3 prostate
[31] = tested on: NCI-H23 lung
[32] = tested on: ACHN renal
[33] = tested on: SK-MEL-28 melanoma
[34] = tested on: OVCAR-4 ovarian
[35] = tested on: A498 renal
[36] = tested on: DU-145 prostate
[37] = tested on: NCI-H522 lung
[38] = tested on: SNB-19 CNS
[39] = tested on: OVCAR-8 ovarian
[40] = tested on: BT-549 breast
[41] = tested on: LOX IMVI melanoma
[42] = tested on: MOLT-4 leukemia
[43] = tested on: SK-MEL-5 melanoma
[44] = tested on: RPMI-8226 leukemia
[45] = tested on: HT29 colon
[46] = tested on: M14 melanoma
[47] = tested on: KM12 colon
[48] = tested on: HCT-116 colon
[49] = tested on: SK-OV-3 ovarian
[50] = tested on: UACC-62 melanoma
[51] = tested on: SF-295 CNS
[52] = tested on: SW-620 colon
[53] = tested on: SF-268 CNS
[54] = tested on: UACC-257 melanoma
[55] = tested on: SK-MEL-2 melanoma
[56] = tested on: 786-0 renal
[57] = tested on: T-47D breast
[58] = tested on: HCC-2998 colon

SMILES: O=C1/C(=C\c2ccc(Cl)cc2)CCOc2c1ccc1ccccc21
- GI50 [1]: 19.4 µM
- TGI [1]: > 100 µM
- GI50 [2]: 42.8 µM
- TGI [2]: > 100 µM
- GI50 [3]: 28.8 µM
- TGI [3]: > 100 µM
- GI50 [4]: 25.8 µM
- TGI [4]: 63.6 µM
- GI50 [5]: 23.2 µM
- TGI [5]: > 100 µM
- GI50 [6]: 25.9 µM
- TGI [6]: 57.9 µM
- GI50 [7]: 17.8 µM
- TGI [7]: 63.4 µM
- GI50 [8]: 55.3 µM
- TGI [8]: > 100 µM
- GI50 [9]: 18.6 µM
- TGI [9]: 57 µM
- GI50 [10]: 46.5 µM
- TGI [10]: > 100 µM
- GI50 [11]: 35.4 µM
- TGI [11]: > 100 µM
- GI50 [12]: 22.4 µM
- TGI [12]: 63.6 µM
- GI50 [13]: 21.4 µM
- TGI [13]: 76.4 µM
- GI50 [14]: 31.7 µM
- TGI [14]: 66 µM
- GI50 [15]: 22.5 µM
- TGI [15]: > 100 µM
- GI50 [16]: 11.9 µM
- TGI [16]: > 100 µM
- GI50 [17]: 18.5 µM
- TGI [17]: 49.6 µM
- GI50 [18]: 16.7 µM
- TGI [18]: 47.6 µM
- GI50 [19]: 34.6 µM
- TGI [19]: > 100 µM
- GI50 [20]: 46.4 µM
- TGI [20]: > 100 µM
- GI50 [21]: 26.1 µM
- TGI [21]: 78.8 µM
- GI50 [22]: 27.6 µM
- TGI [22]: 72.3 µM
- GI50 [23]: 22 µM
- TGI [23]: 50.1 µM
- GI50 [24]: 39.4 µM
- TGI [24]: 87.6 µM
- GI50 [25]: 19.6 µM
- TGI [25]: 62.8 µM
- GI50 [26]: 12.2 µM
- TGI [26]: 29.9 µM
- GI50 [27]: 14.9 µM
- TGI [27]: 62.4 µM
- GI50 [28]: 11.2 µM
- TGI [28]: 27.1 µM
- GI50 [29]: 20.3 µM
- TGI [29]: 58.6 µM
- GI50 [30]: 43.5 µM
- TGI [30]: > 100 µM
- GI50 [31]: 21.6 µM
- TGI [31]: 56.7 µM
- GI50 [32]: 20.4 µM
- TGI [32]: 42.9 µM
- GI50 [33]: 19 µM
- TGI [33]: 38.2 µM
- GI50 [34]: 36.7 µM
- TGI [34]: > 100 µM
- GI50 [35]: 36.4 µM
- TGI [35]: 61.8 µM
- GI50 [36]: 19.7 µM
- TGI [36]: 61.7 µM
- GI50 [37]: 30.1 µM
- TGI [37]: > 100 µM
- GI50 [38]: 23.9 µM
- TGI [38]: 72.3 µM
- GI50 [39]: 28.1 µM
- TGI [39]: > 100 µM
- GI50 [40]: 18.8 µM
- TGI [40]: 47 µM
- GI50 [41]: 18.6 µM
- TGI [41]: 42.3 µM
- GI50 [42]: 11.7 µM
- TGI [42]: > 100 µM
- GI50 [43]: 20.6 µM
- TGI [43]: 45.8 µM
- GI50 [44]: 14 µM
- TGI [44]: 55.5 µM
- GI50 [45]: 22.6 µM
- TGI [45]: 72 µM
- GI50 [46]: 36.3 µM
- TGI [46]: > 100 µM
- GI50 [47]: 31.8 µM
- TGI [47]: > 100 µM
- GI50 [48]: 35 µM
- TGI [48]: > 100 µM
- GI50 [49]: 42.6 µM
- TGI [49]: > 100 µM
- GI50 [50]: 18.7 µM
- TGI [50]: 47 µM
- GI50 [51]: 33.5 µM
- TGI [51]: > 100 µM
- GI50 [52]: 38.5 µM
- TGI [52]: > 100 µM
- GI50 [53]: 24.2 µM
- TGI [53]: 83.9 µM
- GI50 [54]: 29.8 µM
- TGI [54]: 83.3 µM
- GI50 [55]: 87.5 µM
- TGI [55]: > 100 µM
- GI50 [56]: 24 µM
- TGI [56]: 55.7 µM
- GI50 [57]: 19 µM
- TGI [57]: 42.2 µM

SMILES: CCC(=O)c1c(C(F)(F)F)n([O-])c2cc(N3CCNCC3)c(F)cc2[n+]1=O
- GI50 [1]: 3.48 µM
- TGI [1]: 19.8 µM
- GI50 [2]: 2.58 µM
- TGI [2]: 13.8 µM
- GI50 [3]: 2.05 µM
- TGI [3]: 22.9 µM
- GI50 [4]: 10.2 µM
- TGI [4]: 22.6 µM
- GI50 [5]: 4.95 µM
- TGI [5]: 17.3 µM
- GI50 [6]: 0.324 µM
- TGI [6]: 8.16 µM
- GI50 [7]: 2.69 µM
- TGI [7]: 17.5 µM
- GI50 [9]: 4.17 µM
- TGI [9]: 17.1 µM
- GI50 [10]: 2.74 µM
- TGI [10]: 21.3 µM
- GI50 [12]: 1.62 µM
- TGI [12]: 15.1 µM
- GI50 [13]: 1.48 µM
- TGI [13]: 11.5 µM
- GI50 [14]: 3.27 µM
- TGI [14]: 17.9 µM
- GI50 [15]: 1.65 µM
- TGI [15]: 12.8 µM
- GI50 [16]: 1.53 µM
- TGI [16]: 21.9 µM
- GI50 [17]: 2.73 µM
- TGI [17]: 14.6 µM
- GI50 [18]: 2.82 µM
- TGI [18]: 13.7 µM
- GI50 [19]: 1.77 µM
- TGI [19]: 12.5 µM
- GI50 [20]: 1.18 µM
- TGI [20]: 6.68 µM
- GI50 [21]: 7.78 µM
- TGI [21]: 27.3 µM
- GI50 [22]: 2.93 µM
- TGI [22]: 17 µM
- GI50 [23]: 0.454 µM
- TGI [23]: 10.8 µM
- GI50 [24]: 1.66 µM
- TGI [24]: 8.67 µM
- GI50 [25]: 3.95 µM
- TGI [25]: 24.3 µM
- GI50 [26]: 10.3 µM
- TGI [26]: 22.4 µM
- GI50 [27]: 1.76 µM
- TGI [27]: 13.5 µM
- GI50 [28]: 5.37 µM
- TGI [28]: 25.2 µM
- GI50 [29]: 5.04 µM
- TGI [29]: 19.9 µM
- GI50 [30]: 2.33 µM
- TGI [30]: 15.8 µM
- GI50 [31]: 3.42 µM
- TGI [31]: 16.2 µM
- GI50 [32]: 1.55 µM
- TGI [32]: 13.7 µM
- GI50 [33]: 7.93 µM
- TGI [33]: 21.9 µM
- GI50 [34]: 1.89 µM
- TGI [34]: 25 µM
- GI50 [35]: 1.67 µM
- TGI [35]: 11.1 µM
- GI50 [36]: 1.61 µM
- TGI [36]: 4.36 µM
- GI50 [38]: 7.31 µM
- TGI [38]: 20.6 µM
- GI50 [39]: 2.38 µM
- TGI [39]: 11.7 µM
- GI50 [40]: 2.84 µM
- TGI [40]: 12.5 µM
- GI50 [41]: 3.41 µM
- TGI [41]: 19.4 µM
- GI50 [42]: 2.03 µM
- TGI [42]: 34.5 µM
- GI50 [43]: 1.26 µM
- TGI [43]: 3.55 µM
- GI50 [44]: 2.17 µM
- TGI [44]: 12.2 µM
- GI50 [45]: 2.1 µM
- TGI [45]: 18.5 µM
- GI50 [46]: 3.28 µM
- TGI [46]: 14.2 µM
- GI50 [47]: 1.41 µM
- TGI [47]: 15.4 µM
- GI50 [48]: 1.71 µM
- TGI [48]: 13.1 µM
- GI50 [49]: 1.97 µM
- TGI [49]: 10.4 µM
- GI50 [50]: 2.27 µM
- TGI [50]: 11.9 µM
- GI50 [58]: 1.4 µM
- TGI [58]: 14.3 µM
- GI50 [51]: 4.2 µM
- TGI [51]: 18.5 µM
- GI50 [52]: 2.68 µM
- TGI [52]: 17.9 µM
- GI50 [53]: 4.76 µM
- TGI [53]: 21.1 µM
- GI50 [54]: 3.22 µM
- TGI [54]: 13 µM
- GI50 [55]: 2.7 µM
- TGI [55]: 11.7 µM
- GI50 [56]: 3.86 µM
- TGI [56]: 17.6 µM
- GI50 [57]: 2.81 µM
- TGI [57]: 19.1 µM
